One experiment concerns the target T1, HDAC6 (Homo sapiens, UniProt Q9UBN7).
T1 construct: HDAC6 and 8 were cloned as full length N-terminally His-tagged protein; His tag (N); made in house; host or cells: Sf-9 insect cells (baculovirus)
T1 sequence (Q9UBN7 1-1215): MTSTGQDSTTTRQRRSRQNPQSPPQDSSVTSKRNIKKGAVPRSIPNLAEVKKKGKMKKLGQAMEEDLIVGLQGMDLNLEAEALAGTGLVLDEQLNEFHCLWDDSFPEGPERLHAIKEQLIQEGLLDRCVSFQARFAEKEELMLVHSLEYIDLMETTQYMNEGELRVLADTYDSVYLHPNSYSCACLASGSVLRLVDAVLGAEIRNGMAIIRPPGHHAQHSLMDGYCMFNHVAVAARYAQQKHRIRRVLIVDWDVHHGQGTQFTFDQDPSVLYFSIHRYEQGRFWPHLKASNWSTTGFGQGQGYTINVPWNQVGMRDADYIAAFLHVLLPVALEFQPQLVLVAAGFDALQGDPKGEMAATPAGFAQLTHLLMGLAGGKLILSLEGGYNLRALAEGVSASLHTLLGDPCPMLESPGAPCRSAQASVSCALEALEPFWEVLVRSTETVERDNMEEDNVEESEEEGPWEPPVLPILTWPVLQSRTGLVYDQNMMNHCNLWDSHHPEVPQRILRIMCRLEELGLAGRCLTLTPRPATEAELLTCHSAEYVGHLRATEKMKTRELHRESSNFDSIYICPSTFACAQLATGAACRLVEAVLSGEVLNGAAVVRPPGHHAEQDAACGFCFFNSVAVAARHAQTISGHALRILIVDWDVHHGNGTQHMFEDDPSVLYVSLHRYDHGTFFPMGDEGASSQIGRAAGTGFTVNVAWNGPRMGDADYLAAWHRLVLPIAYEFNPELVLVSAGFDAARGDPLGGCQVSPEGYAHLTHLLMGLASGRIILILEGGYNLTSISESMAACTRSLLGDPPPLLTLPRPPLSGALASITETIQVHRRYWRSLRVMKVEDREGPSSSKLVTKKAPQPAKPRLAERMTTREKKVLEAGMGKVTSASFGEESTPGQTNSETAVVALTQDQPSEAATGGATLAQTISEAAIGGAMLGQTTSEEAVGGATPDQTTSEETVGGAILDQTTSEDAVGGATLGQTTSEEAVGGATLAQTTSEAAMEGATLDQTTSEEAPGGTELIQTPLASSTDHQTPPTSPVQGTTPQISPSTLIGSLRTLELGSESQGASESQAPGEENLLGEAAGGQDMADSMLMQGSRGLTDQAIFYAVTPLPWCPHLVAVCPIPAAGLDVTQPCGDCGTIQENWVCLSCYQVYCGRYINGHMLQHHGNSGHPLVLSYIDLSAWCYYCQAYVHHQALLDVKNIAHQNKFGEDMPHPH
The experiment in a line: Fluorescence-based HDAC enzyme assay, recombinant HDAC6. Type of experiment: biochemical. Conditions: recombinant human HDAC enzyme in vitro; read-out: IC50 (μM) HD6. An excerpt: (§1) cDNAs of human HDAC1-8 and 11 were generated by RT-PCR reactions using primers complementary to the 5′ and 3′ coding sequence of human HDAC gene sequences in GenBank. cDNAs corresponding to the full length human HDAC1, 2, 3 and 11 were cloned into pBlueBac4.5 vector (Invitrogen). The constructs were used to generate recombinant baculoviruses using the Bac-N-Blue™ DNA according to the manufacturer's instructions (Invitrogen). The recombinant HDAC1, 2, 3, 11 proteins produced harbor a FLAG tag at their C-termini. cDNAs encoding truncated versions of HDAC4, 5 and 7 encompassing their deacetylase domains were cloned into pDEST10 as an N-terminal hexahistidine fusion protein and recombinant baculoviruses were generated using the Bac-to-Bac™ Baculovirus expression system (Invitrogen). HDAC6 and 8 were cloned as full length N-terminally His-tagged protein. All HDAC proteins were expressed in insect Sf-9 cells (Spodoptera frugiperdai) upon infection with recombinant baculovirus. HDAC1 enzyme was purified from the Q-sepharose FF column (Amersham Pharmacia Biotech, Baie d'Urfe QC, Canada) followed by an anti-FLAG immunoaffinity column (Sigma). HDAC2, 3 and 11 were purified using Flag-antibody immunoaffinity purification. HDAC4, 5, 6, 7 and 8 were purified using either Ni-NTA resin (QIAGEN Mississauga ON, Canada) or His-Select resin (Sigma) with step washes and elution with different concentrations of imidazole in Buffer containing 25 mM Tris (or NaPO4) pH 8.0, 10% glycerol and 150 mM or 500 mM NaCl.
(§2) Recombinant HDAC enzymes were incubated with diluted compounds in assay buffer (25 mM Hepes, pH 8.0, 137 mM NaCl, 1 mM MgCl2 and 2.7 mM KCl) for 10 minutes at ambient temperatures in black 96-well plate. Boc-Lys(Ac)-AMC (for HDAC1, 2, 3, 6, and 8 enzymes), which was purchased from Bachem Biosciences Inc., (King of Prussia, Philadelphia) were added into enzyme-compound mixture and incubated at 37° C. For HDAC4, 5, 7 assays, Boc-Lys(TFA)-AMC, which was synthesized in house, was used as substrate and 0.1% BSA was added to the buffer. […] Reaction time was predetermined to ensure that reaction was linear for the incubation time. Reaction was stopped by adding a freshly prepared trypsin (1 mg/ml final concentration) with 1 μM TSA (Biomol) in assay buffer. After 30 minutes, fluorescence was measured using a fluorometer (SPECTRAMAX GeminiXS, Molecular Devices, Sunnylvale, Calif.). The 50% inhibitory concentrations (IC50) for inhibitors were determined by analyzing dose-response inhibition curves.

For the next experiment, the target named is T2, HDAC8 (Homo sapiens, UniProt Q9BY41).
T2 construct: HDAC6 and 8 were cloned as full length N-terminally His-tagged protein; His tag (N); made in house; host or cells: Sf-9 insect cells (baculovirus)
T2 sequence (Q9BY41 1-377): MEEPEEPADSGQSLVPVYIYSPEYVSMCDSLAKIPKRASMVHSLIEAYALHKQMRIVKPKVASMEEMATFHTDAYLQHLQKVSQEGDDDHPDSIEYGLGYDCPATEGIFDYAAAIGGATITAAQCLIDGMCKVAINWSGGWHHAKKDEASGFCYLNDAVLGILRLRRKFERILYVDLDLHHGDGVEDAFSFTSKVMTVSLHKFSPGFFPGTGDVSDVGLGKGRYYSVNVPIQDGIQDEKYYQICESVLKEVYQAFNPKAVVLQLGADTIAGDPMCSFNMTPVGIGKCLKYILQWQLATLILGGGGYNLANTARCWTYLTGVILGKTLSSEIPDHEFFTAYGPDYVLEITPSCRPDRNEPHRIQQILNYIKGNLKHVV
Kind of experiment: Fluorescence-based HDAC enzyme assay, recombinant HDAC8. Type of experiment: biochemical. Conditions: recombinant human HDAC enzyme in vitro; read-out: IC50 (μM) HD8.
From the text: as §1, §2

The results in this text go back to patent US20090124631A1, “Combination Therapy” (priority 2007, published 2009).

Molecules are shown by their SMILES.

As usually defined, the IC50 is the concentration that gives 50% inhibition.

Take `Nc1ccccc1NC(=O)c1ccc(N2CC[C@H](Nc3cccnc3)C2)cc1` [Compound B]: the 50% inhibitory concentration (IC50) on HDAC6 was above 10 µM; on HDAC8 it was 1.63 µM.
In the case of `Nc1ccc(-c2ccccc2)cc1NC(=O)c1ccc(N2CC[C@H](N)C2)cc1` [Compound D], the half-inhibitory concentration (IC50) at HDAC6 and at HDAC8 was above 10 µM each time.
In the case of `Nc1ccc(-c2ccccc2)cc1NC(=O)c1ccc(N2CCC(N)CC2)cc1` [Compound E], the half-maximal inhibitory concentration (IC50) on HDAC6 and at HDAC8 was above 10 µM throughout.
As for `CN1CCN(c2ccc(C(=O)Nc3cc(-c4ccccn4)ccc3N)cc2)CC1` [Compound F], the concentration for half-maximal inhibition (IC50) on HDAC6 and on HDAC8 was above 10 µM throughout.
Take `CN1CCN(c2ccc(C(=O)Nc3cc(-c4ccncc4)ccc3N)cc2)CC1` [Compound G]: the IC50 on HDAC6 and at HDAC8 was above 10 µM in each case.
For `CC(C)N1CCN(c2ccc(C(=O)Nc3cc(-c4ccncc4)ccc3N)cc2)CC1` [Compound H], the half-inhibitory concentration (IC50) at HDAC6 and on HDAC8 was above 10 µM in each case.
